Consider 14 molecules from ChEMBL document CHEMBL1201862, “PubChem BioAssay data set” (2004).

Among the test systems are HOP-92; SW-620; KM12; HT-29; SF-539; OVCAR-3; NCI-H522; TK-10; OVCAR-8; HOP-62; K562; HCT-116; HCT-15; COLO 205; UACC-257; SK-MEL-2; MOLT-4.
Common to all, as to assay: NCI anticancer screen, dose series, 48 h

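Cultured in 96-well plates, cells were exposed to test compound for 48 hours across five concentrations. GI50 marks 50% less growth.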 The source made the active and inactive calls. Cut-off read from the data, not from the text of the source: active = GI50 up to about 1.1 µM and inactive = higher.

Take `C[N+](C)(C)C1CC([N+](C)(C)C)C2c3ccccc3C21` (stereo not drawn): the GI50 in the test with HOP-92, in the test on SW-620, with KM12, in the test with HT-29, in the test on SF-539 and in the test with OVCAR-3 was > 100 µM (inactive) throughout. Also, the GI50 with NCI-H522, with TK-10, in the test with OVCAR-8, in the test with HOP-62, in the test with K562 and with HCT-116 was > 100 µM (inactive) each time. Also, the GI50 in the test with HCT-15 is > 100 µM; with COLO 205 it was > 100 µM (inactive); in the test with UACC-257, > 100 µM (inactive).
For `COc1ccc(C(=O)C(CC2C(=O)NC(=O)NC2=O)c2ccc(OC)cc2)cc1` (stereo not drawn), the GI50 in the test with SK-MEL-2, with SW-620, with KM12, in the test on HT-29, in the test on SF-539 and with OVCAR-3 was > 100 µM (inactive) throughout. In addition, the GI50 in the test with NCI-H522, in the test with TK-10, with OVCAR-8, in the test with MOLT-4, with HOP-62 and in the test with K562 was > 100 µM (inactive) each time. The GI50 is > 100 µM (inactive) with HCT-116, > 100 µM with HCT-15, > 100 µM (inactive) in the test on COLO 205 and > 100 µM (inactive) with UACC-257.
`COc1ccc(NC(=O)CC(=O)N/N=C(\C)c2cc3ccccc3oc2=O)cc1`: the GI50 in the test on SW-620, in the test on KM12, in the test with HT-29, with SF-539, in the test on OVCAR-3 and with NCI-H522 was > 100 µM (inactive) each time. Moreover, the GI50 in the test on TK-10, in the test on OVCAR-8, with MOLT-4, with HOP-62, in the test with K562 and in the test with HCT-116 was > 100 µM (inactive) throughout. In addition, the GI50 is > 100 µM in the test with HCT-15, > 100 µM (inactive) with COLO 205 and 89.9 µM (inactive) in the test on UACC-257.
Take `CCCCCCCCCCCCCCCC(=O)NCC(COP(=O)([O-])OCC[N+](C)(C)C)OCC` (stereo not drawn): the GI50 is 3.52 µM (inactive) with HOP-92; 13 µM (inactive) with SW-620; 1.27 µM (inactive) with KM12; 5.22 µM (inactive) in the test on HT-29; 16.2 µM (inactive) with SF-539; 6.25 µM (inactive) with OVCAR-3. Further, the GI50 was 1.63 µM (inactive) in the test on TK-10; 4.42 µM (inactive) in the test with OVCAR-8; 3.24 µM (inactive) in the test on MOLT-4; 7.35 µM (inactive) with HOP-62; 11.2 µM (inactive) in the test on HCT-116; 6.4 µM in the test on HCT-15. In addition, the GI50 was 2.31 µM (inactive) with COLO 205 and 15.7 µM (inactive) in the test on UACC-257.
As for `CCC12C=CCN(CCc3c([nH]c4ccccc34)/C=C\1)C2` (stereo not drawn), the GI50 with SK-MEL-2, with SW-620, in the test with KM12, with HT-29, in the test on SF-539 and in the test on OVCAR-3 was > 100 µM (inactive) throughout. The GI50 was > 100 µM (inactive) in the test on NCI-H522; > 100 µM (inactive) in the test on MOLT-4; > 100 µM (inactive) in the test on HOP-62; > 100 µM (inactive) in the test with K562; > 100 µM (inactive) in the test with HCT-116; > 100 µM in the test with HCT-15. For the same molecule, the GI50 in the test with COLO 205 and with UACC-257 was > 100 µM (inactive) throughout.
In the case of `NC(=O)c1nc(-c2ccc(Cl)c(Cl)c2)nc2ccccc12`, the GI50 in the test with HOP-92 was 1.56 µM (inactive); in the test on SK-MEL-2, 9.42 µM (inactive); in the test with SW-620, > 22 µM (inactive); in the test with KM12 it was > 100 µM (inactive); in the test with HT-29 it was > 100 µM (inactive); with SF-539, 13.4 µM (inactive). In addition, the GI50 with NCI-H522 was > 100 µM (inactive); with TK-10, 22.6 µM (inactive); in the test on MOLT-4, > 100 µM (inactive); with HOP-62 it was > 21.9 µM (inactive); in the test on K562, > 31.6 µM (inactive); in the test with HCT-116, > 19.8 µM (inactive). For the same molecule, the GI50 in the test on HCT-15 was > 100 µM; in the test with COLO 205 it was > 100 µM (inactive); with UACC-257 it was > 29.1 µM (inactive).
On to `O=C(CC1(O)C(=O)Nc2c(Cl)ccc(Cl)c21)c1ccc(F)cc1` (stereo not drawn), for which the GI50 in the test with HOP-92 was 30.4 µM (inactive); in the test on SK-MEL-2 it was 48.5 µM (inactive); in the test on SW-620, 34.1 µM (inactive); in the test with KM12, 43 µM (inactive); with HT-29, 40.4 µM (inactive); with OVCAR-3, 34.8 µM (inactive). The GI50 in the test on NCI-H522 is 30.3 µM (inactive); in the test with TK-10, 55.8 µM (inactive); with OVCAR-8, 36.3 µM (inactive); with MOLT-4, 25 µM (inactive); in the test on HOP-62, 46.7 µM (inactive); with K562, 23.3 µM (inactive). The GI50 in the test on HCT-15 was 38.7 µM; in the test with COLO 205, 96.6 µM (inactive); with UACC-257, 33.5 µM (inactive).
Consider `O=C(O)CSc1nnc(-c2ccccc2O)[nH]1`, for which the GI50 with HOP-92, in the test on SK-MEL-2, with SW-620, in the test on HT-29, in the test on SF-539 and in the test with OVCAR-3 was > 100 µM (inactive) in each case. Besides, the GI50 with TK-10 was > 100 µM (inactive); with OVCAR-8, > 100 µM (inactive); in the test on MOLT-4, > 100 µM (inactive); with K562, > 100 µM (inactive); in the test with HCT-116, > 100 µM (inactive); with HCT-15 it was > 100 µM. Moreover, the GI50 in the test on UACC-257 is > 100 µM (inactive).
For the molecule `OC12CCC3(OC4CCCCO4)c4ccccc4C3C1c1ccccc12` (stereo not drawn), the GI50 is > 100 µM (inactive) in the test with SK-MEL-2; 55.6 µM (inactive) with SW-620; 54.6 µM (inactive) in the test on KM12; 43.9 µM (inactive) with HT-29; 37.6 µM (inactive) in the test with NCI-H522; > 100 µM (inactive) with TK-10. The GI50 with OVCAR-8 is 74.3 µM (inactive); in the test with MOLT-4, 35.4 µM (inactive); with HOP-62, > 100 µM (inactive); in the test with K562, 46 µM (inactive); in the test on HCT-116 it was 35 µM (inactive); in the test on HCT-15, 24.2 µM. Also, the values for the GI50 in the test with COLO 205 and in the test with UACC-257 were 55.1 µM (inactive) and 91.2 µM (inactive), respectively.
As to `CC1=NN(C(=O)Nc2ccccc2)C(=O)C2CCC(=O)N12` (stereo not drawn), the GI50 in the test with HOP-92, in the test with SK-MEL-2, with SW-620, in the test on KM12, with SF-539 and in the test on OVCAR-3 was > 100 µM (inactive) in each case. Moreover, the GI50 with TK-10, in the test with OVCAR-8, in the test on MOLT-4, in the test on HOP-62, in the test with K562 and in the test with HCT-116 was > 100 µM (inactive) each time. Moreover, the values for the GI50 in the test with HCT-15, with COLO 205 and with UACC-257 were > 100 µM, > 100 µM (inactive) and > 100 µM (inactive), respectively.
Consider `COC(=O)C(=O)C(C(=O)C(=O)Nc1ccccc1[N+](=O)[O-])c1nc2ccc([N+](=O)[O-])cc2nc1O` (stereo not drawn), for which the GI50 in the test with HOP-92, in the test with SK-MEL-2, with SW-620, with KM12, in the test on HT-29 and in the test on NCI-H522 was > 100 µM (inactive) each time. In addition, the GI50 with TK-10 is > 10 µM (inactive); with OVCAR-8, > 100 µM (inactive); in the test on MOLT-4, > 100 µM (inactive); in the test on K562, > 100 µM (inactive); with HCT-116 it was > 100 µM (inactive); in the test on HCT-15, > 100 µM. Also, the GI50 in the test on COLO 205 and with UACC-257 was > 100 µM (inactive) throughout.
For the molecule `CN(C)/N=N/c1cccc(C(N)=O)c1`, the GI50 with HOP-92, in the test on SK-MEL-2, with SW-620, in the test on KM12, with HT-29 and with SF-539 was > 100 µM (inactive) in each case. Also, the GI50 in the test on OVCAR-3, in the test on TK-10, in the test with OVCAR-8, in the test on MOLT-4, in the test on K562 and in the test on HCT-116 was > 100 µM (inactive) in each case. Further, the GI50 was > 100 µM with HCT-15 and > 100 µM (inactive) with COLO 205.
`C=CCC1C(=O)CC2(C)CC(=O)C(CC=C)C12C` (stereo not drawn): the GI50 in the test with HOP-92, with SW-620, in the test on KM12, in the test with HT-29, in the test with SF-539 and with OVCAR-3 was > 100 µM (inactive) each time. Also, the GI50 in the test with NCI-H522, with TK-10, with OVCAR-8, with MOLT-4, with HOP-62 and in the test with K562 was > 100 µM (inactive) in each case. Also, the GI50 is > 100 µM (inactive) in the test with HCT-116, > 100 µM in the test with HCT-15, > 100 µM (inactive) in the test with COLO 205 and > 100 µM (inactive) in the test with UACC-257.
Regarding `CSc1nnc(COc2ccc(Cl)cc2)o1`, the GI50 in the test on SW-620, in the test with KM12, with HT-29, in the test with SF-539, with OVCAR-3 and in the test with NCI-H522 was > 100 µM (inactive) in each case. Also, the GI50 was > 100 µM (inactive) in the test on TK-10; > 100 µM (inactive) with OVCAR-8; > 100 µM (inactive) in the test on HOP-62; > 100 µM (inactive) with HCT-116; > 100 µM in the test on HCT-15; > 100 µM (inactive) in the test with COLO 205. In addition, the GI50 in the test on UACC-257 is > 100 µM (inactive).
